Results taken from PMC10362274 (iScience, 2023).

Target: HLA-A∗02:01 (Homo sapiens, UniProt P04439, D140Y/D185E/D98H/E176V/E277Q/G131W/G231S/I119V/I121R/I166T/I218V/L300P/L318F/N151K/N90K/P208A/P217A/Q86G/Q94H/R138H/R169H/T345S)
Format: binding
Conditions: n = 2

YM2SODGTM6SOSQV [M2SOM6SO]
IC50 compared with the native peptide: increased
